Assay in all cases: cells
Design in all cases: species or system NCI human tumour cell line panel; NCI one-dose anti-proliferative screen, human tumour cell line panel, growth inhibition percent (GI%)

Assay [1] relates to SK-OV-3. The settings on record: Homo sapiens, SK-OV-3; growth inhibition (GI%), single dose. Here is the method:
(§1) Ten of the newly synthesised 1,2,3-triazolo benzenesulfonamide derivatives were selected by NCI (Bethesda, MD) for evaluating their anti-proliferative activity. The selected compounds were subjected to a primary in vitro one-dose ([…]) anti-proliferative assay against 57 human tumour cell lines following the previously reported method[30] and their obtained growth inhibition percent (GI%) are presented in Table 2. A subset of ten triazolo-benzenesulfonamides (3, 5, 6, 7, 9, 11, 16–18, and 20) were selected and subjected to an in vitro anti-proliferative screening against a panel of 57 cancer cell lines at NCI at an initial high dose ([…]). The human cell lines used were derived from nine cancer types: leukaemia, lung, colon, CNS, melanoma, ovarian, renal, prostate and breast cancers.

The test system of assay [2] is T-47D. To be noted: Homo sapiens, T47D; growth inhibition (GI%), single dose. The procedure: as §1
The subject of assay [3] is MCF7. The settings on record: Homo sapiens, MCF7; growth inhibition (GI%), single dose. Here is the method:
as §1

In assay [4] the test system is UACC-257. To be noted: Homo sapiens, UACC-257; growth inhibition (GI%), single dose. Here is the method: as §1
The test system of assay [5] is NCI-H322M. To be noted: Homo sapiens, NCI-H322M; growth inhibition (GI%), single dose. The procedure:
as §1

The test system of assay [6] is SR. To be noted: Homo sapiens, SR; growth inhibition (GI%), single dose. The procedure: as §1
The test system of assay [7] is UO-31. To be noted: Homo sapiens, UO-31; growth inhibition (GI%), single dose. Here is the method:
as §1

The test system of assay [8] is RPMI-8226. The settings on record: Homo sapiens, RPMI-8226; growth inhibition (GI%), single dose. Here is the method:
as §1

For assay [9], the system named is HT29. The settings on record: Homo sapiens, HT-29; growth inhibition (GI%), single dose. Here is the method:
as §1

For assay [10], the system named is NCI-H522. The settings on record: Homo sapiens, NCI-H522; growth inhibition (GI%), single dose. Here is the method:
as §1

Assay [11] has as its system HOP-62. To be noted: Homo sapiens, HOP-62; growth inhibition (GI%), single dose. Here is the method: as §1
Assay [12] has as its system A549/ATCC. To be noted: Homo sapiens, A549; growth inhibition (GI%), single dose. Here is the method:
as §1

Assay [13] relates to PC-3. The settings on record: Homo sapiens, PC-3; growth inhibition (GI%), single dose. Here is the method: as §1
Assay [14] concerns HCT-116. The settings on record: Homo sapiens, HCT-116; growth inhibition (GI%), single dose. Here is the method: as §1
Assay [15] has as its system OVCAR-8. To be noted: Homo sapiens, OVCAR-8; growth inhibition (GI%), single dose. Here is the method: as §1
Assay [16] deals with U251. The settings on record: Homo sapiens, U-251; growth inhibition (GI%), single dose. The procedure: as §1
Assay [17] concerns HL-60(TB). To be noted: Homo sapiens, HL-60; growth inhibition (GI%), single dose. The procedure:
as §1

In assay [18] the test system is NCI-H226. The settings on record: Homo sapiens, NCI-H226; growth inhibition (GI%), single dose. The procedure: as §1
Assay [19] has as its system A498. To be noted: Homo sapiens, A498; growth inhibition (GI%), single dose. Here is the method:
as §1

Assay [20] deals with HS 578T. The settings on record: Homo sapiens, Hs-578T; growth inhibition (GI%), single dose. The procedure: as §1

In the case of `N#Cc1nnn(-c2ccc(S(N)(=O)=O)cc2)c1NS(=O)(=O)c1ccccc1` [compound 11, N-(4-cyano-1-(4-sulfamoylphenyl)-1H-1,2,3-triazol-5-yl)benzenesulfonamide], the inhibition (as a rule, how much of the control response was suppressed) at 10 µM in assay [1] came to 15.1%; in [2], 9.6%; in assay [3], 1.7%; in [4], 8.1%; in [5], 2.6%; in assay [6], 9.2%. Besides, the inhibition at 10 µM in [7] worked out at 13.4%; in assay [8] it was 7.1%; in assay [9] it was 5.1%; in assay [10], 10.3%; in assay [11], 4.2%; in assay [12] it was 11.8%. For the same compound, the inhibition at 10 µM turned out to be 9.7% in assay [13]; 2.1% in assay [14]; 2.9% in assay [15]; 10.9% in assay [16]; 10.7% in assay [17].
For `Nc1nc(=S)[nH]c2c1nnn2-c1ccc(S(N)(=O)=O)cc1` [compound 18, 4-(7-amino-5-thioxo-4,5-dihydro-3H-[1,2,3]triazolo[4,5-d]pyrimidin-3-yl)benzenesulfonamide], the inhibition at 10 µM in assay [1] came to 11.6%; in assay [2] it was 5.8%; in assay [3] it was 2.9%; in assay [4], 6.1%; in assay [18], 9.8%; in assay [5], 2.2%. The inhibition at 10 µM in [6] was determined as 1.7%; in [7], 13.8%; in assay [8], 12.3%; in [19], 5.5%; in assay [9] it was 10.8%; in assay [10], 13.7%. Further, the inhibition at 10 µM was found to be 4.8% in assay [11]; 5.1% in [12]; 7.8% in [13]; 3.7% in assay [15]; 26.1% in assay [17]; 9.8% in assay [20].
Turning to `CCn1c(=S)[nH]c2c(nnn2-c2ccc(S(N)(=O)=O)cc2)c1=N` [compound 20, 4-(6-ethyl-7-imino-5-thioxo-4,5,6,7-tetrahydro-3H-[1,2,3]triazolo[4,5-d]pyrimidin-3-yl)benzenesulfonamide], the inhibition at 10 µM in assay [1] was determined as 3.6%; in [3], 4.9%; in assay [4], 6.2%; in [18], 6.9%; in assay [5] it was 3.2%; in assay [6], 7.5%. In addition, the inhibition at 10 µM in assay [7] turned out to be 7.3%; in assay [8], 12.1%; in assay [19], 6.2%; in assay [10] it was 7.8%; in [12], 12.2%; in assay [13], 9.7%. In addition, the inhibition at 10 µM in assay [15] was found to be 4.8%; in assay [16], 1.9%; in assay [17], 8.9%; in [20], 2.5%.
`N#Cc1nnn(-c2ccc(S(N)(=O)=O)cc2)c1NCC(=O)c1ccccc1` [compound 7, 7]: the inhibition at 10 µM in assay [1] is 8.2%; in assay [2], 4.6%; in assay [3], 6.7%; in assay [4] it was 11.7%; in [18] it was 11.8%; in assay [5] it was 8.8%. For the same compound, the inhibition at 10 µM in assay [6] turned out to be 9.3%; in assay [7], 21.1%; in assay [8] it was 12.5%; in assay [9] it was 4.5%; in assay [10] it was 16.1%; in assay [11], 8.3%. In addition, the inhibition at 10 µM in [12] stood at 6.7%; in [13], 15.9%; in assay [14] it was 5.1%; in [15], 2.4%; in assay [16], 6.4%; in assay [17] it was 11.6%. Also, the inhibition at 10 µM in assay [20] came to 1.7%.
On to `N#Cc1c(-c2ccc(Cl)cc2)nc2c(nnn2-c2ccc(S(N)(=O)=O)cc2)c1N` [compound 16, 4-(7-amino-5-(4-chlorophenyl)-6-cyano-3H-[1,2,3]triazolo[4,5-b]pyridin-3-yl)benzenesulfonamide], for which the inhibition at 10 µM worked out at 9.7% in assay [1]; 5.6% in assay [2]; 13.6% in assay [3]; 6.9% in [4]; 9.8% in [18]; 16.8% in [6]. The inhibition at 10 µM in [7] amounted to 25%; in assay [8], 8.4%; in assay [19] it was 17.6%; in [9] it was 1.2%; in assay [10], 9.8%; in [11], 7.3%. Moreover, the inhibition at 10 µM in assay [12] was 8.6%; in assay [13], 22.2%; in assay [14] it was 4.6%; in assay [15], 3.8%; in assay [16], 2.7%; in assay [17] it was 5.5%. In assay [20], this compound yielded an inhibition at 10 µM of 12.1%.
Regarding `N#Cc1nnn(-c2ccc(S(N)(=O)=O)cc2)c1/N=C/c1ccc(Cl)cc1` [compound 9, 9], the inhibition at 10 µM in [1] is 9.9%; in assay [2], 11.5%; in [3], 4.7%; in assay [4], 2.3%; in assay [18] it was 4.8%; in [6] it was 15.8%. In addition, the inhibition at 10 µM was 0.3% in assay [7]; 12.3% in assay [8]; 8.6% in assay [19]; 0.4% in assay [9]; 10.5% in assay [10]; 0.1% in [11]. In addition, the inhibition at 10 µM worked out at 16.1% in assay [12]; 9.3% in [13]; 1.2% in assay [14]; 7.4% in [15]; 4.7% in assay [16]; 12.6% in assay [17].

The values above are taken from publication PMC6171417, “Carbonic anhydrase inhibition with a series of novel benzenesulfonamide-triazole conjugates” (Journal of Enzyme Inhibition and Medicinal Chemistry, 2018).
